Measured values reported in patent US12246040B2, “Human homogeneous amniotic fluid stem cell lines and uses thereof” (priority 2018, dated 2025).

Key:
Format in all cases: cell-based
[1] = tested on: homogeneous human amniotic fluid clonal stem cells; test: In vitro osteocyte differentiation with pharmacological agent screening; conditions: results not shown
[2] = tested on: homogeneous human amniotic fluid clonal stem cells; test: In vitro chondrocyte differentiation with pharmacological agent screening; conditions: 21 days; results not shown
[3] = tested on: homogeneous human amniotic fluid clonal stem cells; test: In vitro neural differentiation with pharmacological agent screening; conditions: neural induction 21 days; results not shown

| Structure (SMILES) | effect on bone development / osteogenic differentiation [1] | effect on chondrogenic differentiation [2] | effect on neural / neurological development [3] |
| --- | --- | --- | --- |
| CCCC(CCC)C(=O)O [VPA, valproic acid] | does not affect | does not affect | decreases |
| O=S(=O)([O-])[O-].[Mg+2] [MgSO4] | minimal or no effect | minimal or no effect | minimal or no effect |
